Measured values: a melting point compilation (Tetko et al.; mined from patent text by program, amines drawn as free bases though some values may be those of a salt)

melting point | SMILES
140 °C | Fc1cc(C(c2cccc(Cl)c2)n2cncn2)c2ccccc2n1 (stereo unspecified)
219 to 221 °C | CC(C)C(=O)Nc1cc([N+](=O)[O-])c(Sc2cccc3cnccc23)cc1N
135 to 137 °C | CCCC(=O)c1cnc2c(C)cccc2c1Nc1ccccc1OC
180 to 181 °C | Oc1cccc(-c2csc(-c3cccnc3)n2)c1
110 to 112 °C | O=C(O)c1cccc(NC(=O)C(CS)CC2CN(Cc3ccccc3)CCO2)c1 (stereo unspecified)
161 to 163 °C | COc1ccc(-c2[nH]nc3c2CCc2ccccc2-3)cc1
55.6 to 56.7 °C | COC(=O)c1cnc(F)cn1
86 to 88 °C | CCCCCON=C(C(=O)OCC)c1csc(N)n1
89.5 to 90.5 °C | CC(=O)OCC(C)(CC(C)(C)C)C(=O)O (stereo unspecified)
118 to 120 °C | COCCOC(=O)C(=O)Nc1nc(-c2ccccc2)cs1
156 to 158 °C | CCCc1nn(C)c2c(=S)[nH]c(-c3ccccc3OCC)nc12
202 to 204 °C | CCCCc1nc2cc(F)ccc2n1Cc1ccc(C(=O)O)cc1
129 to 130 °C | COc1cccc2c1CC(CC(=O)O)C1(C2)OCCO1 (stereo unspecified)
184 to 185 °C | COc1cc(C)c(C=CC(C)=CC=CC(C)=CC(=O)n2ccnc2)c(C)c1C
201 to 204 °C | CN(C)c1nc(-c2ccccc2O)cs1
192 to 193 °C | O=C(NCc1ccc(Br)cc1F)c1ccc(Br)cc1[N+](=O)[O-]
99 to 100 °C | Fc1ccc2sc(COc3cccc(CBr)c3)nc2c1
142 to 143 °C | O=C(O)CCc1sc(-c2ccccc2)nc1-c1ccc(Cl)cc1
168 to 178 °C | COC(=O)CC[C@H](NC(=O)c1ccc(NCCc2c(N(C(C)=O)C(C)=O)nc(NC(C)=O)[nH]c2=O)cc1)C(=O)OC
202 to 203 °C | COc1cc(-c2cnc3[nH]cc(C(=O)NCC(C)O)c3n2)cc(OC)c1OC (stereo unspecified)
67 to 70 °C | CSc1ccc(C=C2c3ccc(F)cc3CC2C)cc1 (stereo unspecified)
> 300 °C | O=C(O)c1c2c(nc3ccc(F)cc13)-c1ccc(-c3ccc(F)cc3F)cc1CCC2
118 to 120 °C | FC(F)(F)c1cccc(C2=NOC(CNC(=S)N3CCOCC3)C2)c1 (stereo unspecified)
135 to 136 °C | C[C@H](N=C(C(=O)O)C(C)(C)C)c1ccccc1
129 to 131 °C | CC1(C)OC(C=Cc2cc(Cl)cc(Cl)c2)=CC1=O

melting point | SMILES
128 to 130 °C | CCOC(=O)c1ccc2cc(OC(=S)N(C)C)ccc2c1
213 to 215 °C | O=C(Nc1ccc(-c2ccccc2Cl)[nH]c1=O)OCc1ccccc1
168 to 169 °C | CN1CCN(c2cnn(C)c(=O)c2C=NO)CC1
174 to 177 °C | O=C(Nc1ccccc1)c1cccc(NC(=S)Nc2cc(Cl)cc(Cl)c2)c1
151 to 153 °C | Cc1noc(NS(=O)(=O)c2cccc([N+](=O)[O-])c2)c1Br
> 300 °C | Nc1n[nH]c2nc3cc(O)ccc3cc12
41 to 43 °C | C=CCC(CO)C(O)c1ccccc1 (stereo unspecified)
78 to 80 °C | CCCN(C1CC(C)(C)Oc2ccc(OCCOC)cc21)S(=O)(=O)CC (stereo unspecified)
131 to 132 °C | CCN1c2nc(Cl)ccc2NC(=O)c2cc(CCc3cccc(NS(C)(=O)=O)c3)cnc21
146 to 147 °C | COCc1c(C(=O)OC(C)C)ncc2c1c1c(OCc3ccccc3)cccc1n2CC(=O)N(C)CCc1ccccc1
156 to 158 °C | COc1cc2[nH]c(N(C)Cc3cccc(C4CCN(C)CC4)c3)nc(=O)c2c(C)c1OC
102 °C | COc1ccc2c(c1)CCC1C2CCC2(C)C1CCC2N(C)CCOCCO (stereo unspecified)
94 to 95 °C | COCN1C(C)=C(C(=O)OCc2ccccc2)C(c2ccccc2C(F)(F)F)C(C(=O)OCc2ccccc2)=C1C
118 to 120 °C | O=C1CCC(Cc2ccc(Cl)cc2)CN1 (stereo unspecified)
77 to 79 °C | Clc1nc(Cl)c2c(n1)CCC2
37 °C | CCOP(=O)(OCC)C(O[Si](C)(C)C)c1ccc(OC)c(C)c1 (stereo unspecified)
227 to 228 °C | O=C(O)c1cc(=O)cc(C=Cc2ccccc2)o1
> 210 °C | N=C(N)c1cccc(Oc2cc(C(N)=O)cc(Oc3cccc(C(=N)N)c3)n2)c1
144 °C | O=C1[C@@H]2C[C@H](OCc3ccc4cnccc4c3)CN2C(=O)N1c1cc(Cl)cc(Cl)c1
162 to 165 °C | OCCOc1ccc2nc(S)sc2c1
246 °C | COc1ccc2nc(NC(=O)c3nc4ccccc4[nH]3)sc2c1
219 to 223 °C | CN(Cc1ccc(NC(=O)C2=Cc3cc(-c4ccc5c(c4)OCO5)ccc3S(=O)(=O)CC2)cc1)C1CCC(=O)CC1
51 to 52 °C | CCCCCCCCCCC/C=C\c1c[nH]c(C(=O)OC)c1
203 °C | CN(C1CCC(O)CC1)S(=O)(=O)c1ccc(Nc2nccc(Nc3ccc(F)cc3)n2)cc1 (stereo unspecified)
184 to 186 °C | Cc1c(C(=O)O)cnn1-c1c(Cl)cc(Cl)cc1Cl

melting point | SMILES
96 °C | COC1CCN(C(=O)COc2cc(-c3ccccc3)nc3ccccc23)CC1
92 to 93 °C | CCN1c2ncc(CSc3ccccc3)cc2C(=O)N(C)c2ccc(Cl)nc21
141 to 142 °C | N[C@@H](Cc1ccccc1)C(O)(c1ccccc1)c1ccccc1
194 to 195 °C | CC(=O)Nc1ccc(Cc2cc(C)c(C(=O)c3ccc(Cl)cc3)n2C)nc1
144 to 145 °C | CC1(C)CC(c2ccc(Cl)cc2)=C(c2ccc(S(N)(=O)=O)cc2)C1
171 to 173 °C | CC(=O)c1ccc(S(=O)(=O)Nc2cccnc2Nc2ccccc2)cc1
91 to 93 °C | CC(C)(CO)NC(=O)c1cccnc1
120 °C | CCOCCOc1cc(C(O)C#Cc2ccc(C(=O)O)c(O)c2)cc2c1C(C)(C)CCC2(C)C (stereo unspecified)
240 to 242 °C | CN(C1=NC(=O)CS1)c1ccc(C(O)(C(F)(F)F)C(F)(F)F)cc1
191 °C | O=C(COc1cc(-c2ccc(Cl)cc2)nc2ccccc12)N1CCOCC1
88 to 90 °C | CCC(=O)N1C2CCC1CN(Cc1cc3ccccc3o1)C2
> 300 °C | Cc1nc(-c2cc3[nH]c(=O)c(=O)[nH]c3cc2[N+](=O)[O-])c[nH]1
210 to 212 °C | Nc1nc2ccccc2c2c1ncn2CCCCNC(=O)c1ccccc1
216 to 218 °C | Cn1ccc(-c2nnc(Cc3ccc(F)cc3)o2)c(O)c1=O
229 to 230 °C | CCCOc1ccc(/C=C/C(=O)O)cc1-c1nc2c(CCC)nn(C)c2c(=O)[nH]1
> 300 °C | Cc1nc(Nc2nc3ccccc3[nH]2)nc(O)c1CC(=O)O
125 to 128 °C | CC(=O)CCC1(C(C)C)Cc2cc(OCC(=O)O)c(Cl)c(Cl)c2C1=O (stereo unspecified)
120 to 122 °C | CCCCCCCCCCCCCCCC(=O)Nc1ccc(O)c(C(C)=O)c1
182 to 197 °C | CCN(C)c1nn(C)c2ncc(-c3ccncc3)cc12
134 to 138 °C | Nc1cc(-n2cc(C(=O)O)c(=O)c3cc(F)c(NCC(O)C(F)(F)F)c(Cl)c32)c(F)cc1F (stereo unspecified)
147 to 150 °C | N#Cc1ccnc(C=Cc2ccccc2)n1
271 to 272 °C | O=c1c(NCc2cccc(O)c2)c(Nc2ccc(O)c(-c3ccccn3)c2)c1=O
211 to 212 °C | O=C(c1ccc(C(F)(F)F)cc1)N1Cc2c(-c3ccc(F)cc3)ncn2-c2ccccc21
106 to 107 °C | CCOC(=O)N1CCN(c2ccc(C(=O)CCc3ccc(N)cc3)cc2)CC1
189 to 191 °C | COCCc1nc2c(N)nc3ccccc3c2n1CCCNS(=O)(=O)c1ccc(C)cc1

melting point | SMILES
142 to 144 °C | CC(C)(C)OC(=O)NCCNC(=O)c1nc(Cl)sc1Br
123 to 125 °C | C[C@H](c1ccccc1)N1C(=O)N[C@@H]2C(=O)OC[C@@H]21
103 °C | CN(C)c1ccc(C(=O)OC2CCN(Cc3ccccc3)CC2)cc1
80 to 85 °C | Clc1cc(-c2ccccc2)nc(Cl)n1
235 to 237 °C | CCc1cc(C#N)ccc1Nc1c(N[C@H](C)C(C)(C)C)c(=O)c1=O
203 to 205 °C | COc1cc(OC)nc(NC(=O)NS(=O)(=O)c2ccccc2S(=O)(=O)OCC(F)(F)F)n1
259 °C | CCNS(=O)(=O)c1cccc(NC(=O)c2cnn3c(C(F)F)cc(-c4ccc(C(F)(F)F)cc4)nc23)c1
185 to 188 °C | C[C@H]1C(=O)Nc2ccc(Cl)cc2N1C(=O)Oc1ccc(Cl)cc1
217 to 220 °C | CCCCc1ncc(/C=C(\Cc2cccs2)C(=O)O)n1Cc1ccc(C(=O)OC)cc1
71 to 83 °C | CC1CCNC(=C2C(=O)CC(C(C)C)CC2=O)N1 (stereo unspecified)
140 to 142 °C | COc1ccc(-c2cc(-c3ccc(O)c(F)c3)nc3c(Cl)cc(O)cc23)cc1
287 to 290 °C | Cc1cc(C)cc(P(=O)(c2cc(C)cc(C)c2)c2ccc3ccccc3c2-c2c(P(=O)(c3cc(C)cc(C)c3)c3cc(C)cc(C)c3)ccc3ccccc23)c1
155 to 158 °C | COc1cc(N)c(C(=O)c2ccncc2)cc1OC
140 to 142 °C | CCOC(=O)c1cnn(-c2ccccn2)c1S(=O)(=O)NC(=O)Nc1nc(OC)cc(OC)n1
139 to 140 °C | COc1cc(CSc2ccc(O)cc2)cc(OC)c1OC
98 to 101 °C | CC(C)c1ccc(N(Cc2cnn(Cc3ccc(Cl)s3)c2)C(=O)C2CCCc3c(O)cccc32)cn1 (stereo unspecified)
64 to 66 °C | CO/C=C(/C(=O)OC)c1ccccc1COc1cccc(N2CCCCC2)c1
82 °C | O=S(c1ccccc1)c1ccc(Cc2csc(Br)n2)cc1 (stereo unspecified)
97 to 99 °C | Clc1ccc(C2CCN(CCCOc3ccc4c(c3)CNCCC4)CC2)cc1
164 °C | O=C(O)c1ccccc1Oc1ccc(C(F)(F)F)cc1NS(=O)(=O)c1ccc(Cl)cc1
193 °C | COC(=O)c1ccc(Cl)c(C#N)c1
56 to 57 °C | COCC(=O)N(CC(C)=O)c1c(C)cccc1C
278 to 281 °C | O=C(O)Cc1c(C(=O)c2cccc(F)c2)[nH]c2cc(Cl)ccc12

SMILES | melting point
[N-]=[N+]=NOS(=O)(=O)N=[N+]=[N-] | 60 °C
CCCCn1cc(C(=O)C(=O)O)c2cc(-c3ccc(C(F)(F)F)cc3)ccc21 | 149 °C
Cc1c(C(=O)CCl)csc1C(=O)CCl | 155 to 156 °C
